What was measured:
Experiment in all cases: Kinase panel (mobility shift)
Type in all cases: biochemical
HIPK3 = HIPK3 (Homo sapiens, UniProt Q9H422)
Outline: (§1)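 Microfluidic mobility-shift readout: product and substrate peaks are resolved by charge, and their fluorescence is compared to give enzyme activity. Enzyme, fluorescent substrate and test compound are reacted, then terminated before chip loading. Values are binned at 5 um: A 95% or greater, B 90%-94%, C 80%-89%.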

EPH-A8 = molecular target: T1, EPH-A8 (Homo sapiens, UniProt P29322)
T1 sequence (P29322 28-1005): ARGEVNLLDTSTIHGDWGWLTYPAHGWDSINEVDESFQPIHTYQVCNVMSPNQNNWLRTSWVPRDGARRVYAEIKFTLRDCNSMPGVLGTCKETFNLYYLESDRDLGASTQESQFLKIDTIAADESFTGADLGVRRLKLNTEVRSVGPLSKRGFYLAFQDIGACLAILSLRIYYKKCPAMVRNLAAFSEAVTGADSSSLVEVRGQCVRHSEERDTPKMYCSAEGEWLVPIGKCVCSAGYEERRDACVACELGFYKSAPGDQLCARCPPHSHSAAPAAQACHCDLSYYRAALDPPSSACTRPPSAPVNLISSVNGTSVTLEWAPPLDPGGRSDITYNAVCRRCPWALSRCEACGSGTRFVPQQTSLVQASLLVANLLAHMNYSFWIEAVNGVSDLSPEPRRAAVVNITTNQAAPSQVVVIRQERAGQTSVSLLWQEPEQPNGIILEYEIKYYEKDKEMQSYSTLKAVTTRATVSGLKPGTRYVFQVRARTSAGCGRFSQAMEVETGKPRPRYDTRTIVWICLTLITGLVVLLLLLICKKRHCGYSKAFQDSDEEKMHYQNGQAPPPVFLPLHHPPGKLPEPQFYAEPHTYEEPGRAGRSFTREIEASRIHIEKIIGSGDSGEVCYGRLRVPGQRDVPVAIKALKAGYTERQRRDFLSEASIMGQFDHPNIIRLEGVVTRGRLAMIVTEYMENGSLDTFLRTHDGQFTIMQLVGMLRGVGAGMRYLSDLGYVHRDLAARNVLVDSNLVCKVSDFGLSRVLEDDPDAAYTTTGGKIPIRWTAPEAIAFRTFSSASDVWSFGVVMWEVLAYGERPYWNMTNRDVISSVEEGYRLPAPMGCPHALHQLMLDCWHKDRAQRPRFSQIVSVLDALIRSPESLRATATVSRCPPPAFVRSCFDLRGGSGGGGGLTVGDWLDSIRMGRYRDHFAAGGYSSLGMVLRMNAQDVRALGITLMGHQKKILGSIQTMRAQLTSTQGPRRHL
Outline: as §1

BRK = BRK (Homo sapiens, UniProt Q13882)
Outline: as §1

TYRO3 = molecular target: T2, TYRO3 (Homo sapiens, UniProt Q06418)
T2 sequence (Q06418 41-890): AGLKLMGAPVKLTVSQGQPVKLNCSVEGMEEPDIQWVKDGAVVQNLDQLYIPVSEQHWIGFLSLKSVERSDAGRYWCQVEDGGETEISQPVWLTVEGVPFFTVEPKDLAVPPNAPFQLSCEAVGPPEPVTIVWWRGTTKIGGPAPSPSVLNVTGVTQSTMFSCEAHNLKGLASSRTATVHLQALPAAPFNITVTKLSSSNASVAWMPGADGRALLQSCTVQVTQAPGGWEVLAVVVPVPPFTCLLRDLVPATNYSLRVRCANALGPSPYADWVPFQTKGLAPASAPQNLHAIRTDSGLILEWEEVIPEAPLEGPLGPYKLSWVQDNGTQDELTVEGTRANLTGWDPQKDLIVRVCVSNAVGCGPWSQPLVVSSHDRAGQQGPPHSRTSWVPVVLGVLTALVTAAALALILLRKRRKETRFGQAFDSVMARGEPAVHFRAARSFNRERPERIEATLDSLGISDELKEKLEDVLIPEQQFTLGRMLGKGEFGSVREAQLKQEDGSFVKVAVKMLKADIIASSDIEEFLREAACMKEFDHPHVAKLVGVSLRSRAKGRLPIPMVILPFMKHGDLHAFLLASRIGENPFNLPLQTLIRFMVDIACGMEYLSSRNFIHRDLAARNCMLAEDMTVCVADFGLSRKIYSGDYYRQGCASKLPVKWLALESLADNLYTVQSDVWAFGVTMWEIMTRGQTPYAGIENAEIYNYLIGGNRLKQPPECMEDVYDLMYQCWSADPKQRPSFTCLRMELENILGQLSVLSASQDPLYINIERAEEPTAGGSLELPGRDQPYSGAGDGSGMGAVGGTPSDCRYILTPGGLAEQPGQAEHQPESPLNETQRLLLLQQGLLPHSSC
Outline: as §1

KIT = KIT (Homo sapiens, UniProt P10721)
Outline: as §1

PDGFR-b = PDGFR-b (Homo sapiens, UniProt P09619)
Outline: as §1

TRKA = TRKA (Homo sapiens, UniProt P04629)
Outline: as §1

KIT, sequence (P10721 26-976, species assumed): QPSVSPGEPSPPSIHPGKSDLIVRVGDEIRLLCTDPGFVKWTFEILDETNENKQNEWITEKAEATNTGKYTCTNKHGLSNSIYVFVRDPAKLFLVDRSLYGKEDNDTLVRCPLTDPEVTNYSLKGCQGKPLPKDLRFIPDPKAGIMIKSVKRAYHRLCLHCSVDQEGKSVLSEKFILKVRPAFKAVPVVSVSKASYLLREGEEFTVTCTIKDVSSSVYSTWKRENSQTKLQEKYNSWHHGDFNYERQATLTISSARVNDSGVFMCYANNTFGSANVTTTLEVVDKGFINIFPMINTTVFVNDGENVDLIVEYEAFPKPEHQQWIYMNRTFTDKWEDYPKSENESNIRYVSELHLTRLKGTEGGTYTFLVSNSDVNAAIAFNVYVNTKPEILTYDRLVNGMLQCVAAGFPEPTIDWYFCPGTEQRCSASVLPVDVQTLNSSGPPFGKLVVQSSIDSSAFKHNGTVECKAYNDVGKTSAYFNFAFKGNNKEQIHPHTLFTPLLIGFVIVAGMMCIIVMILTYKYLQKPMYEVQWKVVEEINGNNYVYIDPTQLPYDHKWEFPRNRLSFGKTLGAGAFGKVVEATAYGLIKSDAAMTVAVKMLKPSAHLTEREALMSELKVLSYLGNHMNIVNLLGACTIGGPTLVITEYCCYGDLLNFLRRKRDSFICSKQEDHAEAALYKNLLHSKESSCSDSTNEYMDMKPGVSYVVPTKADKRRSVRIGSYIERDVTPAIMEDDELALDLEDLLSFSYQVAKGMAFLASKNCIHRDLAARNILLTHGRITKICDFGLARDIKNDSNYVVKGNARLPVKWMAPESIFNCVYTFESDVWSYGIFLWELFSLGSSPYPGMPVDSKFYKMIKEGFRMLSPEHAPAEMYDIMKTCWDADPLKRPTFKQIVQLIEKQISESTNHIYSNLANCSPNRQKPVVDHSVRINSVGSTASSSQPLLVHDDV
TRKA, sequence (P04629 33-796, species assumed): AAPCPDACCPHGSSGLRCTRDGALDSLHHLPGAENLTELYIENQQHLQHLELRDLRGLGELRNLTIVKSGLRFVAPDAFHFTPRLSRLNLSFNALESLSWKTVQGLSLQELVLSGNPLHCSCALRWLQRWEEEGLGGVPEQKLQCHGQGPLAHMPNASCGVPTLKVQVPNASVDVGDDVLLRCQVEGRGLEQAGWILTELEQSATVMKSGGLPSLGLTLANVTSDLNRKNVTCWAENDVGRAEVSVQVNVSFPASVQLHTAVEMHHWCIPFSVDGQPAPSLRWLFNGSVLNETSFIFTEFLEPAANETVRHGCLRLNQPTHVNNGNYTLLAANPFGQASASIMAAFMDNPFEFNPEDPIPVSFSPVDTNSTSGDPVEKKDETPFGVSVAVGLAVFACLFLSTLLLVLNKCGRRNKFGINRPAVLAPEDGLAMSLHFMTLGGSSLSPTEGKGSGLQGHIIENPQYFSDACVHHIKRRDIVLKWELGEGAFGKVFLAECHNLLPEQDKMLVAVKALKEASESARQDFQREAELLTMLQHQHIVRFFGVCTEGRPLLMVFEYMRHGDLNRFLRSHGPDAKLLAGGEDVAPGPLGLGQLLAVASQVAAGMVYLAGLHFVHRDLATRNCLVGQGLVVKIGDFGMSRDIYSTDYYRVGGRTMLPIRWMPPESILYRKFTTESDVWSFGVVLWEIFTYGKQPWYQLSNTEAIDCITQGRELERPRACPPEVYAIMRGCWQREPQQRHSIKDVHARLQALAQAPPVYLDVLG
HIPK3, sequence (Q9H422 whole entry, species assumed): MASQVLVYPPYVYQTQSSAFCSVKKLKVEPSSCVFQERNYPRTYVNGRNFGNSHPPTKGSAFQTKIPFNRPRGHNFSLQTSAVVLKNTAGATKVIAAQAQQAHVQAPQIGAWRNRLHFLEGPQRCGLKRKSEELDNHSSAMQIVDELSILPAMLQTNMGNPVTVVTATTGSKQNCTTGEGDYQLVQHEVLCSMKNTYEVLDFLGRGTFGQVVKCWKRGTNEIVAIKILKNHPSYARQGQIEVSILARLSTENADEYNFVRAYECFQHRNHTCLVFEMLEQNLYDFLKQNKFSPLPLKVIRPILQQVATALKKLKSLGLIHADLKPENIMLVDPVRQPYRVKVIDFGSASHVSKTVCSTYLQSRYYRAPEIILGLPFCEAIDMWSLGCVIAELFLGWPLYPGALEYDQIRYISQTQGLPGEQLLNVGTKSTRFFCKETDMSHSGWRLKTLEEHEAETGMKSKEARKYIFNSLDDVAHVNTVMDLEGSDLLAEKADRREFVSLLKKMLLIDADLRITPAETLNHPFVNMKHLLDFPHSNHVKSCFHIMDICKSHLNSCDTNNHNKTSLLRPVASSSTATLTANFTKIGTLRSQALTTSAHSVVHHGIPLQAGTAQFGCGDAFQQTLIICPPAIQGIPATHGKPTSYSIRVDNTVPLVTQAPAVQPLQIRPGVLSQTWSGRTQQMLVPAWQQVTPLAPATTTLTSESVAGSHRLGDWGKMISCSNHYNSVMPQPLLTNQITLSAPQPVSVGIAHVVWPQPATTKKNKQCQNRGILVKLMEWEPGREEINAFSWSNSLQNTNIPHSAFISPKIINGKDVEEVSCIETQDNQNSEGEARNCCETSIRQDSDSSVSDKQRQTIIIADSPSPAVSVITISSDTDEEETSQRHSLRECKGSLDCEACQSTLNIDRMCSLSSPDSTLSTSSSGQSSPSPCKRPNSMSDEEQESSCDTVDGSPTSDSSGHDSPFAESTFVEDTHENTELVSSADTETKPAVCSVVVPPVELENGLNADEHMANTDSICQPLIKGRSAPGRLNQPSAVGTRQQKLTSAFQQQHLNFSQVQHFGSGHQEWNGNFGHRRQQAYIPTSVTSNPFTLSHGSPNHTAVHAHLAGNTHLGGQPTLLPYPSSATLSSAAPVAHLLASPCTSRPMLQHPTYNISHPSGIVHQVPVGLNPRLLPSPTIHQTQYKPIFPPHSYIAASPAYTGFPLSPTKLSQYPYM
PDGFR-b, sequence (P09619 33-1106, species assumed): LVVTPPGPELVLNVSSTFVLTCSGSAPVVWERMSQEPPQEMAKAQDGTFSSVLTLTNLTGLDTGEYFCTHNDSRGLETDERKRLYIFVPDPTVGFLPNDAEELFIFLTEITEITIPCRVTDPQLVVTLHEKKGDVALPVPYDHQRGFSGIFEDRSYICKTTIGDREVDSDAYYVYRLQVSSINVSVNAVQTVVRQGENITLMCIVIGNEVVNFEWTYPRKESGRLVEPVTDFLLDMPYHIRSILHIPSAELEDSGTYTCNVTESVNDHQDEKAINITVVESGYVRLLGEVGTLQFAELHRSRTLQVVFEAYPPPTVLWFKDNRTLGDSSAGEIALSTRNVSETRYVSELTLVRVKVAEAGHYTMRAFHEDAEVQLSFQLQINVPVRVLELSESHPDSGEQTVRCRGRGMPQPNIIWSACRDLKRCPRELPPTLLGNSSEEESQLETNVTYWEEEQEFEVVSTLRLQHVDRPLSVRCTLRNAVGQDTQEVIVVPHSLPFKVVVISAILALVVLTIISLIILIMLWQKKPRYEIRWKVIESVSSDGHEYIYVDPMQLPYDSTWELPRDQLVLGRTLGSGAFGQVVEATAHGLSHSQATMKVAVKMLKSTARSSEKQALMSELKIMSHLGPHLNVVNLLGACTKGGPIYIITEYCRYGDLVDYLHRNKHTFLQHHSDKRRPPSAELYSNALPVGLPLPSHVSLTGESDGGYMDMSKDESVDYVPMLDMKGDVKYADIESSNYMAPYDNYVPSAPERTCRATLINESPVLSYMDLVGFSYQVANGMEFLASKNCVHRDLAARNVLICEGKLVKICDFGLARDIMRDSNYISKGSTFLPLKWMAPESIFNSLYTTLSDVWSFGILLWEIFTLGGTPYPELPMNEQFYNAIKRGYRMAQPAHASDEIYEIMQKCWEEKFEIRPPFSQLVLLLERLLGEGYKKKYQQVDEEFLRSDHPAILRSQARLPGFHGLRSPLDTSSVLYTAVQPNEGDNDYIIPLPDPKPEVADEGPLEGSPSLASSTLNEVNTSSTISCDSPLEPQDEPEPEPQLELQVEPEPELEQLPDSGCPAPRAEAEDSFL
BRK, sequence (Q13882 whole entry, species assumed): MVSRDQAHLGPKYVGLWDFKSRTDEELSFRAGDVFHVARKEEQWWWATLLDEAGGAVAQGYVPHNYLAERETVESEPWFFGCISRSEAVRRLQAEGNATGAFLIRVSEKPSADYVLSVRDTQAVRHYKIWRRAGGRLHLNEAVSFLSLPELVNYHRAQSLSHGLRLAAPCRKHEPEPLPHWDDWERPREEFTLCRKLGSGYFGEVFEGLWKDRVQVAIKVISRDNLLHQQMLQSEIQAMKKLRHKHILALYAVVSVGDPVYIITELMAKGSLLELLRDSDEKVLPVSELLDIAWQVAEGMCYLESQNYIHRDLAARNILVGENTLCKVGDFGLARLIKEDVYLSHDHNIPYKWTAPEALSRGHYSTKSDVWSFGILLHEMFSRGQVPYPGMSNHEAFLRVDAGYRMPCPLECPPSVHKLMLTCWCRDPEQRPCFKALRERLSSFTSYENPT

| SMILES | inhibition at 5 µM (HIPK3) | inhibition at 5 µM (EPH-A8) | inhibition at 5 µM (BRK) | inhibition at 5 µM (TYRO3) | inhibition at 5 µM (KIT) | inhibition at 5 µM (PDGFR-b) | inhibition at 5 µM (TRKA) |
| --- | --- | --- | --- | --- | --- | --- | --- |
| CSc1nc(C(=O)Nc2ccc(Oc3ccnc(C(=O)NC4CNC4)c3)c(F)c2)c(-c2ccc(F)cc2)o1 [Compound 29] | 80 to 89% | 50 to 79% | ≥ 95% | 50 to 79% | < 50% | < 50% | < 50% |
| [2H]C([2H])([2H])NC(=O)c1cc(Oc2ccc(NC(=O)c3nc(SC)oc3-c3ccc(F)s3)cc2F)ccn1 [Compound 35] | < 50% | < 50% | < 50% | 50 to 79% | < 50% | < 50% | < 50% |
| CNC(=O)c1cc(Oc2ccc(NC(=O)c3nc(SC)oc3-c3ccc(F)s3)cc2F)ccn1 [Compound 16] | < 50% | < 50% | < 50% | < 50% | < 50% | < 50% | < 50% |
| CSc1nc(C(=O)Nc2ccc(Oc3cc4cnn(C)c4cc3Br)c(F)c2)c(-c2ccc(F)cc2)o1 [Compound 2] | < 50% | 50 to 79% | < 50% | < 50% | < 50% | < 50% | < 50% |
| CNC(=O)c1ccc(Oc2ccc(NC(=O)c3nc(Cl)oc3-c3ccc(F)cc3)c(F)c2)cn1 [Compound 36] | 50 to 79% | < 50% | < 50% | < 50% | < 50% | < 50% | < 50% |
| CNC(=O)c1cc(Oc2ccc(NC(=O)c3nc(NC)oc3-c3ccc(F)cc3)cc2F)ccn1 [Compound 14] | 50 to 79% | 50 to 79% | 80 to 89% | 80 to 89% | 50 to 79% | < 50% | 80 to 89% |
| CNC(=O)c1cc(Oc2ccc(NC(=O)c3nc(OC4CC4)oc3-c3ccc(F)cc3)cc2F)ccn1 [Compound 32] | 50 to 79% | 80 to 89% | ≥ 95% | 90 to 94% | < 50% | < 50% | 50 to 79% |
| CSc1nc(C(=O)Nc2ccc(Oc3ccnc(C(=O)NCC(F)(F)F)c3)c(F)c2)c(-c2ccc(F)cc2)o1 [Compound 40] | < 50% | < 50% | 50 to 79% | < 50% | < 50% | < 50% | < 50% |
| CSc1nc(C(=O)Nc2ccc(Oc3ccnc(C(=O)NC4CCN(C)CC4)c3)c(F)c2)c(-c2ccc(F)cc2)o1 [Compound 42] | 50 to 79% | < 50% | ≥ 95% | < 50% | < 50% | < 50% | < 50% |
| CNC(=O)c1cc(Oc2ccc(NC(=O)c3nc(S(C)(=O)=O)sc3-c3ccc(F)cc3)cc2F)ccn1 [Compound 13] | 80 to 89% | 80 to 89% | 50 to 79% | 80 to 89% | < 50% | < 50% | 50 to 79% |
| CSc1nc(C(=O)Nc2ccc(Oc3ccnc(C(=O)NCCN(C)C)c3)c(F)c2)c(-c2ccc(F)cc2)o1 [Compound 41] | < 50% | 50 to 79% | ≥ 95% | 50 to 79% | < 50% | < 50% | < 50% |
| CNC(=O)c1cc(Oc2ccc(NC(=O)c3nc(SC)oc3-c3ccc(F)cc3F)cc2F)ccn1 [Compound 12] | 50 to 79% | 50 to 79% | ≥ 95% | 90 to 94% | 50 to 79% | < 50% | 80 to 89% |
| CNC(=O)c1cc(Oc2ccc(NC(=O)c3nc(OC)oc3-c3ccc(F)c(F)c3)cc2F)ccn1 [Compound 24] | 50 to 79% | 50 to 79% | < 50% | 50 to 79% | < 50% | < 50% | 50 to 79% |
| CNC(=O)c1cc(Oc2c(F)cc(NC(=O)c3nc(NC)sc3-c3ccc(F)cc3)cc2F)ccn1 [Compound 19] | < 50% | 50 to 79% | 50 to 79% | 50 to 79% | 50 to 79% | < 50% | 50 to 79% |
| COc1nc(C(=O)Nc2ccc(Oc3ccnc(C(=O)NCC(F)(F)F)c3)c(F)c2)c(-c2ccc(F)cc2)o1 [Compound 43] | < 50% | < 50% | < 50% | < 50% | < 50% | < 50% | < 50% |
| CNC(=O)c1cc(Oc2ccc(NC(=O)c3nc(SC)oc3-c3ccc(F)cc3F)cc2)ccn1 [Compound 6] | < 50% | 80 to 89% | ≥ 95% | ≥ 95% | 80 to 89% | < 50% | 80 to 89% |
| CNC(=O)c1cc(Oc2ccc(NC(=O)c3nc(SC)oc3-c3ccc(F)cc3Cl)cc2)ccn1 [Compound 3] | < 50% | 50 to 79% | 90 to 94% | 90 to 94% | 50 to 79% | < 50% | 80 to 89% |
| CSc1nc(C(=O)Nc2ccc(Oc3ccnc(C(=O)NC4COC4)c3)c(F)c2)c(-c2ccc(F)c(F)c2)o1 [Compound 37] | < 50% | < 50% | < 50% | < 50% | < 50% | < 50% | < 50% |
| CNC(=O)c1cc(Oc2ccc(NC(=O)c3nc(OCC(F)(F)F)oc3-c3ccc(F)cc3)cc2F)ccn1 [Compound 38] | 50 to 79% | 50 to 79% | 90 to 94% | 50 to 79% | < 50% | < 50% | 50 to 79% |
| CNC(=O)c1cc(Oc2ccc(NC(=O)c3nc(NC)sc3-c3ccc(F)cc3F)cc2F)ccn1 [Compound 21] | 50 to 79% | 50 to 79% | < 50% | < 50% | < 50% | < 50% | 50 to 79% |

From patent US11629143B2, “HipK4 inhibitors and uses thereof” (Vibliome Therapeutics, LLC, priority 2020, dated 2023)
